What all share (assay): NCI anticancer screen, dose series, 48 h
Assay [1] relates to IGROV1 ovarian.
In assay [2] the test system is MALME-3M melanoma.
Assay [3] relates to NCI-H460 lung.
Assay [4] has as its system SK-MEL-2 melanoma.
Assay [5] relates to SK-MEL-28 melanoma.
In assay [6] the test system is U251 CNS.
Assay [7] relates to UACC-257 melanoma.
The test system of assay [8] is HOP-62 NSCLC.
Assay [9] has as its system HS 578T breast.
Assay [10] has as its system M14 melanoma.
Assay [11] relates to NCI/ADR-RES ovarian.

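In this assay, cells in 96-well plates receive the compound at five concentrations for 48 hours. Endpoints are linearly interpolated between the surrounding concentrations. GI50: concentration for 50% inhibition of growth. The concentration for full growth arrest is given as TGI.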

Take `O=C(N/N=C/C=C/c1ccccc1)[C@H](O)[C@@H](O)C(=O)N/N=C/C=C/c1ccccc1`: the TGI in assay [1], in assay [2], in [3], in [4], in assay [5] and in assay [6] was above 100 µM in each case. Also, the TGI in assay [7] is above 100 µM.

`COc1ccc(CC2CCc3nc(N)nc(N)c3C2)cc1OC` (configuration not stated): the TGI in assay [8] was above 100 µM; in assay [9], above 100 µM; in assay [1] it was above 64 µM; in assay [10], above 39.5 µM; in [2], 23.2 µM; in [3], above 48.6 µM. Further, the TGI in [11] was 16.3 µM; in assay [4], above 91.6 µM; in [5], above 100 µM; in assay [6], above 100 µM; in assay [7] it was above 54.4 µM.

Take `CCN(CCO)C(=O)C1(c2ccccc2)CCCCC1`: the TGI in [8], in assay [9], in [1], in assay [10], in [2] and in [3] was above 10 µM throughout. For the same compound, the TGI in assay [11], in [4], in assay [5] and in assay [6] was above 10 µM each time.

In the case of `C[C@]12CC[C@H](OC(=O)Cc3ccc(N(CCCl)CCCl)cc3)CC1=CC[C@@H]1[C@@H]2CC[C@]2(C)C(=O)CC[C@@H]12`, the TGI in assay [8], in [9], in assay [1], in assay [10], in [2] and in assay [3] was above 100 µM throughout. Further, the TGI in assay [11], in assay [4], in assay [5], in assay [6] and in assay [7] was above 100 µM throughout.

For `OCCCNc1nc(=S)[nH]c2[nH]ncc12`, the GI50 in assay [9] was 30.7 µM; in [1], 29.9 µM; in assay [2] it was 48.3 µM; in assay [3], 30.5 µM; in [11], above 100 µM; in [4], 53.2 µM. Also, the values for the GI50 in assay [5], in assay [6] and in assay [7] were 57.1 µM, 40.1 µM and 68 µM, respectively. Further, the TGI was 85.1 µM in assay [9]; above 100 µM in assay [1]; above 100 µM in assay [2]; above 100 µM in [3]; above 100 µM in [11]; above 100 µM in assay [4]. The TGI in assay [5], in assay [6] and in assay [7] was above 100 µM throughout.

For the origin of these results see PubChem BioAssay (NCI).
